Assays:
[1] = system: WSU-DLCL2 human diffuse large cell lymphoma; assay: Inhibition of tumor growth in WSU-DLCL2 non-Hodgkin's-lymphoma model with PNT-100 and vincristine (Example 7); type: in vivo, mice
Description: A non-Hodgkin's-lymphoma model (NHL) was used. The WSU-DLCL2 (Wayne State University diffuse large cell lymphoma) model is a very robust model of chemoresistant aggressive human diffuse large cell lymphoma. It was obtained from Dr. Ramzi Mohammad and Dr. Al-Katib and colleagues at the Karmanos Cancer Institute at Wayne State University. (See Al-Katib, A M, et al., Clin. Cancer Res. 4, 1305-1314 (1998); Mohammad, R, et al., Clin. Cancer Res. 8, 1277-1283 (2002); Mohammad, R M, et al., Mol. Cancer. Ther., 4, 13-21 (2005); Mohammad, R M, et al., Clin. Cancer Res. 6, 4950-4956, (2000).) The study was designed to administer five daily doses of 5 mg/kg PNT-100 (SEQ ID NO: 1251), and in certain cohorts, combination therapy with vincristine.

Daudi xenografts = assay: Efficacy of liposomal PNT-100 and rituximab in Daudi xenografts (Example 11); type: in vivo, mice; conditions: doses and schedules of Table 5, FIGS. 7-9
Description: Daudi cells are a model of Burkett's lymphoma. Xenografts with Daudi cells were generated in mice as described in the previous examples. Liposomal PNT-100 was formulated as in example 9 and has similar properties and a concentration of 2.4 mg PNT-100 per ml. The mice were divided into 10 groups and treated as in Table 5.
Tumor volume was caliper measured. Studies were concluded when control animal xenografts reached 2000 mm^3. […] FIG. 8 is a Kaplan-Meyer plot, showing the percent of mice whose tumors have not yet reached 2000 mm^3 each day.

WSU-DLCL2 xenografts = assay: Efficacy of liposomal PNT-100 and rituximab in WSU-DLCL2 xenografts (Example 10); type: in vivo, C.B-17 SCID mice; conditions: rituximab 20 mg/kg days 2 and 5; liposomal PNT-100 daily for five days; i.v.
Description: Xenografts with WSU-DLCL2 cells were generated in C.B-17 SCID mice between 4-6 weeks old as described in the previous examples. […] Human pharmaceutical grade rituximab (Biogen Idec-Genentech) was provided by Karmanos Cancer Institute. The mice were treated as in Table 4. [table] Animals were checked three times weekly for tumor growth by caliper measurements. An approximate tumor volume was calculated using the formula ½(a×b^2), where b is the smaller of two perpendicular diameters. Animals were sacrificed when individual animal tumor burden reached 2000 mm^3 or when the study was concluded 81 days post tumor trocar.

Row | Substance | growth of tumors in mice ([1]; 5 mg/kg PNT-100, alone or with vincristine) | weight loss in the animals ([1]; after one dose, 5 mg/kg planned daily doses) | effect on tumor volume / time to 2000 mm^3 (Daudi xenografts) | complete regression of the tumor (shrinkage below measurable size for three consecutive time points), number of tumors (WSU-DLCL2 xenografts) | complete regression through the 81 day endpoint, number of tumors (WSU-DLCL2 xenografts)
1 | PNT-100: PNT-100 oligonucleotide not methylated, bcl-2 oligonucleotide, SEQ ID NO:1251 (DNA CACGCACGCGCATCCCCGCCCGTG; sugars by position and backbone not given here; liposomal formulation) | decreases the growth tumors | noticeable weight loss | little effect | – | –
2 | Rituximab: human pharmaceutical grade rituximab (Biogen Idec-Genentech), antibody directed against CD20 | – | – | little effect | seven out of eight | four out of eight
